Reference: patent EP4603105A1, “PHARMACEUTICAL COMPOSITION CONTAINING CYCLIC COMPOUND HAVING SELECTIVE KRAS INHIBITORY EFFECT AGAINST HRAS AND NRAS” (CHUGAI SEIYAKU KABUSHIKI KAISHA, priority 2022, dated 2024)
Where a SMILES comes first, the peptide text is derived from it. Bridges are numbered along the chain shown (N, C = ends). [ ]: non-standard residue; d: D form. The star is where a group is joined. hPhe(3-Cl-4-CF3) = N[C@@H](CCc1ccc(C(F)(F)F)c(Cl)c1)C(=O)O; NPrPhe(4-CF3) = CCCN[C@@H](Cc1ccc(C(F)(F)F)cc1)C(=O)O; NMeGly(cPent) = CN[C@H](C(=O)O)C1CCCC1; NMeChg = CN[C@H](C(=O)O)C1CCCCC1; NMeI = CC[C@H](C)[C@H](NC)C(=O)O; NMeD = CN[C@@H](CC(=O)O)C(=O)O; Ac4c(3-oxa) = NC1(C(=O)O)COC1; NMeL = CN[C@@H](CC(C)C)C(=O)O; NMeAbu = CC[C@H](NC)C(=O)O; NMeS = CN[C@@H](CO)C(=O)O; Morpholide = C1CN(*)CCO1; Piperidide = C1CCN(*)CC1; Ac5c = NC1(C(=O)O)CCCC1; Ac4c = NC1(C(=O)O)CCC1; Sar = CNCC(=O)O

What was measured:
[1] = molecular target: HRAS wild-type protein (Homo sapiens, UniProt P01112); experiment: Binding to HRAS by surface plasmon resonance (SPR), KD and KD ratio to KRAS; conditions: ratio of the KD value with respect to HRAS wild-type protein to the KD value with respect to KRAS
Method in brief: (§1)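 Compound binding is evaluated by SPR single-cycle kinetics, with concentrations added intermittently from low to high for 75 s each. Target surfaces carry GDP-loaded biotinylated Avi-RAS at about 100–300 RU, regenerated after each cycle; temperature 30°C. A 1:1 binding model gives KD.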

[2] = molecular target: GDP-bound NRAS wild-type protein (Homo sapiens, UniProt P01111); experiment: Binding to NRAS by surface plasmon resonance (SPR), KD and KD ratio to KRAS; conditions: ratio of the KD value with respect to GDP-bound NRAS wild-type protein to the KD value with respect to KRAS
Method in brief: as §1

[3] = tested on: human lung cancer strain NCI-H441; format: cell-based
Method in brief: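 Proliferation was scored by […] measured after the reagent was added to cultures kept at 37°C in 5% carbon dioxide.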

Sequence of HRAS wild-type protein (P01112 whole entry): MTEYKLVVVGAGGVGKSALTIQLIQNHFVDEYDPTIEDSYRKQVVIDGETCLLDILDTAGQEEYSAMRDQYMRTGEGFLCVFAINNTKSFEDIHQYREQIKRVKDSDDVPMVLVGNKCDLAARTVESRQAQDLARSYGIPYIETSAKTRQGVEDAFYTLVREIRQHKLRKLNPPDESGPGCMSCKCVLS
Sequence of GDP-bound NRAS wild-type protein (P01111 whole entry): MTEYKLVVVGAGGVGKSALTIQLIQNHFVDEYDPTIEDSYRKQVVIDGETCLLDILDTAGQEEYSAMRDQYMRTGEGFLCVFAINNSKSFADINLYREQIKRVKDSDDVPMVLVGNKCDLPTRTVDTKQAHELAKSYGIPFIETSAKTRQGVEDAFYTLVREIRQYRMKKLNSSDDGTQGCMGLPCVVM

| Compound | HRAS /KRAS [1] | NRAS /KRAS [2] | IC50 [3] [nM] |
| --- | --- | --- | --- |
| CCCN1C(=O)CN(C)C(=O)CN(C)C(=O)[C@H]([C@@H](C)CC)NC(=O)[C@H](CC(C)C)N(C)C(=O)C[C@@H](C(=O)N2CCOCC2)N(C)C(=O)[C@H](C2CCCC2)N(C)C(=O)C2(CCC2)NC(=O)[C@H](CC)N(C)C(=O)[C@H](CCc2ccc(C(F)(F)F)c(Cl)c2)NC(=O)CN(C)C(=O)[C@@H]1Cc1ccc(C(F)(F)F)cc1 [PP1918] ([NMeL]I[Sar][Sar][NPrPhe(4-CF3)][Sar][hPhe(3-Cl-4-CF3)][NMeAbu][Ac4c][NMeGly(cPent)][NMeD]-Morpholide; lactam N-11) | C (A compound having a KD ratio of 0.1 or more and less than 3 is denoted as C) | B (a compound having 3 or more and less than 10 is denoted as B) | 32.8 |
| CCO[C@@H]1C[C@H]2C(=O)NC3(CC(C)(C)C3)C(=O)N(C)[C@@H](C3CCCC3)C(=O)N(C)[C@H](C(=O)N(C)CC)CC(=O)N(C)[C@@H](CC(C)C)C(=O)N[C@@H]([C@@H](C)OCC)C(=O)N(C)CC(=O)N(C)[C@H]3C/C=C\CCN(C3=O)[C@@H](Cc3ccc(C(F)(F)F)cc3)C(=O)N(C)CC(=O)N[C@@H](CCc3cc(F)c(C(F)(F)F)c(F)c3)C(=O)N2C1 [PP1919] | A (a compound having 10 or more and less than 20 is denoted as A) | A (a compound having 10 or more and less than 20 is denoted as A) | 6.3 |
| CCCN1C(=O)CN(C)C(=O)CN(C)C(=O)[C@H]([C@@H](C)CC)NC(=O)[C@H](CC(C)C)N(C)C(=O)C[C@@H](C(=O)N2CCOCC2)N(C)C(=O)[C@H](C2CCCC2)N(C)C(=O)C2(CCCC2)NC(=O)[C@H](COC)N(C)C(=O)[C@H](CCc2ccc(C(F)(F)F)c(Cl)c2)NC(=O)CN(C)C(=O)[C@@H]1Cc1ccc(C(F)(F)F)cc1 [PP1920] ([NMeL]I[Sar][Sar][NPrPhe(4-CF3)][Sar][hPhe(3-Cl-4-CF3)][NMeS](Me)[Ac5c][NMeGly(cPent)][NMeD]-Morpholide; lactam N-11) | C (A compound having a KD ratio of 0.1 or more and less than 3 is denoted as C) | B (a compound having 3 or more and less than 10 is denoted as B) | 32.4 |
| CCCO[C@H](C)[C@@H]1NC(=O)[C@H](CC(C)C)N(C)C(=O)C[C@@H](C(=O)N(C)C)N(C)C(=O)[C@H](C2CCCC2)N(C)C(=O)C2(CC(C)(C)C2)NC(=O)[C@@H]2C[C@@H](OCC)CN2C(=O)[C@H](CCc2cc(F)c(C(F)(F)F)c(F)c2)NC(=O)CN(C)C(=O)[C@H](Cc2ccc(C(F)(F)F)cc2)N2CC/C=C\C[C@@H](C2=O)N(C)C(=O)CN(C)C1=O [PP1921] | A (a compound having 10 or more and less than 20 is denoted as A) | A (a compound having 10 or more and less than 20 is denoted as A) | 7.8 |
| CCCN1C(=O)CN(C)C(=O)CN(C)C(=O)[C@H]([C@@H](C)CC)NC(=O)[C@H](CC(C)C)N(C)C(=O)C[C@@H](C(=O)N2CCOCC2)N(C)C(=O)[C@H](C2CCCC2)N(C)C(=O)C2(COC2)NC(=O)[C@@H]2CCCN2C(=O)[C@H](CCc2ccc(C(F)(F)F)c(Cl)c2)NC(=O)CN(C)C(=O)[C@@H]1Cc1ccc(C(F)(F)F)cc1 [PP1922] ([NMeL]I[Sar][Sar][NPrPhe(4-CF3)][Sar][hPhe(3-Cl-4-CF3)]P[Ac4c(3-oxa)][NMeGly(cPent)][NMeD]-Morpholide; lactam N-11) | C (A compound having a KD ratio of 0.1 or more and less than 3 is denoted as C) | B (a compound having 3 or more and less than 10 is denoted as B) | 44.1 |
| CCCN(C)C(=O)[C@@H]1CC(=O)N(C)[C@@H](CC(C)C)C(=O)N[C@@H](C2CCOCC2)C(=O)N(C)CC(=O)N(C)[C@H]2C/C=C\CCN(C2=O)[C@@H](Cc2ccc(C(F)(F)F)cc2)C(=O)N(C)CC(=O)N[C@@H](CCc2cc(F)c(C(F)(F)F)c(F)c2)C(=O)N2C[C@H](OCC)C[C@H]2C(=O)NC2(CC(C)(C)C2)C(=O)N(C)[C@@H](C2CCCC2)C(=O)N1C [PP1923] | A (a compound having 10 or more and less than 20 is denoted as A) | A (a compound having 10 or more and less than 20 is denoted as A) | 68 |
| CCC[C@H]1C(=O)N[C@@H]([C@@H](C)CC)C(=O)N2CC[C@H]2C(=O)N(C)[C@H]2C/C=C\CCN(C2=O)[C@@H](Cc2ccc(C(F)(F)F)cc2)C(=O)N(C)CC(=O)N[C@@H](CCc2cc(F)c(C(F)(F)F)c(F)c2)C(=O)N2C[C@H](OCC)C[C@H]2C(=O)NC2(CC(C)(C)C2)C(=O)N(C)[C@@H](C2CCCC2)C(=O)N(C)[C@H](C(=O)N(C)C)CC(=O)N1C [PP1925] | A (a compound having 10 or more and less than 20 is denoted as A) | A (a compound having 10 or more and less than 20 is denoted as A) | 9.7 |
| CCCN1C(=O)CN(C)C(=O)CN(C)C(=O)[C@H]([C@@H](C)CC)NC(=O)[C@H](CC(C)C)N(C)C(=O)C[C@@H](C(=O)N2CCOCC2)N(C)C(=O)[C@H]([C@@H](C)CC)N(C)C(=O)C2(CCCC2)NC(=O)[C@@H]2CCCN2C(=O)[C@H](CCc2ccc(C(F)(F)F)c(Cl)c2)NC(=O)CN(C)C(=O)[C@@H]1Cc1ccc(C(F)(F)F)cc1 [PP1926] ([NMeL]I[Sar][Sar][NPrPhe(4-CF3)][Sar][hPhe(3-Cl-4-CF3)]P[Ac5c][NMeI][NMeD]-Morpholide; lactam N-11) | B (a compound having 3 or more and less than 10 is denoted as B) | B (a compound having 3 or more and less than 10 is denoted as B) | 17.4 |
| CCC[C@H]1C(=O)N[C@@H]([C@@H](C)CC)C(=O)N[C@@H](C)C(=O)N(C)[C@H]2C/C=C\CCN(C2=O)[C@@H](Cc2ccc(C(F)(F)F)cc2)C(=O)N(C)CC(=O)N[C@@H](CCc2cc(F)c(C(F)(F)F)c(F)c2)C(=O)N2C[C@H](OCC)C[C@H]2C(=O)NC2(CC(C)(C)C2)C(=O)N(C)[C@@H](C2CCCC2)C(=O)N(C)[C@H](C(=O)N(C)C)CC(=O)N1C [PP1927] | A (a compound having 10 or more and less than 20 is denoted as A) | A (a compound having 10 or more and less than 20 is denoted as A) | 23.5 |
| CCCN1C(=O)CN(C)C(=O)CN(C)C(=O)[C@H]([C@@H](C)CC)NC(=O)[C@H](CC(C)C)N(C)C(=O)C[C@@H](C(=O)N2CCOCC2)N(C)C(=O)[C@H](C2CCCCC2)N(C)C(=O)C2(CCC2)NC(=O)[C@@H]2CCCN2C(=O)[C@H](CCc2ccc(C(F)(F)F)c(Cl)c2)NC(=O)CN(C)C(=O)[C@@H]1Cc1ccc(C(F)(F)F)cc1 [PP1928] ([NMeL]I[Sar][Sar][NPrPhe(4-CF3)][Sar][hPhe(3-Cl-4-CF3)]P[Ac4c][NMeChg][NMeD]-Morpholide; lactam N-11) | B (a compound having 3 or more and less than 10 is denoted as B) | B (a compound having 3 or more and less than 10 is denoted as B) | 18.4 |
| CCCN1C(=O)CN(C)C(=O)CN(C)C(=O)[C@H]([C@@H](C)CC)NC(=O)[C@H](CC(C)C)N(C)C(=O)C[C@@H](C(=O)N2CCCCC2)N(C)C(=O)[C@H](C2CCCC2)N(C)C(=O)C2(CCC2)NC(=O)[C@@H]2CCCN2C(=O)[C@H](CCc2ccc(C(F)(F)F)c(Cl)c2)NC(=O)CN(C)C(=O)[C@@H]1Cc1ccc(C(F)(F)F)cc1 [PP1930] ([NMeL]I[Sar][Sar][NPrPhe(4-CF3)][Sar][hPhe(3-Cl-4-CF3)]P[Ac4c][NMeGly(cPent)][NMeD]-Piperidide; lactam N-11) | C (A compound having a KD ratio of 0.1 or more and less than 3 is denoted as C) | B (a compound having 3 or more and less than 10 is denoted as B) | 7 |
| CCO[C@@H]1C[C@H]2C(=O)NC3(CC(C)(C)C3)C(=O)N(C)[C@@H](C3CCCC3)C(=O)N(C)[C@H](C(=O)N(C)C)CC(=O)N(C)[C@@H](CC(C)C)C(=O)N[C@@H]([C@@H](C)CC)C(=O)N(C)CC(=O)N(C)[C@H]3C/C=C\CCN(C3=O)[C@@H](Cc3ccc(C(F)(F)F)cc3)C(=O)N(C)CC(=O)N[C@@H](CCc3ccc(C(F)(F)F)c(F)c3)C(=O)N2C1 [PP1931] | B (a compound having 3 or more and less than 10 is denoted as B) | A (a compound having 10 or more and less than 20 is denoted as A) | 9.5 |
| CCC[C@H]1C(=O)N[C@@H]([C@@H](C)CC)C(=O)N(C)CC(=O)N(C)[C@H]2C/C=C\CCN(C2=O)[C@@H](Cc2ccc(C(F)(F)F)cc2)C(=O)N(C)CC(=O)N[C@@H](CCc2ccc(Cl)c(Cl)c2)C(=O)N2C[C@H](OCC)C[C@H]2C(=O)NC2(CC(C)(C)C2)C(=O)N(C)[C@@H](C2CCCC2)C(=O)N(C)[C@H](C(=O)N(C)C)CC(=O)N1C [PP1932] | A (a compound having 10 or more and less than 20 is denoted as A) | A (a compound having 10 or more and less than 20 is denoted as A) | 13.1 |
| CCC[C@H]1C(=O)N[C@@H]([C@@H](C)CC)C(=O)N(C)CC(=O)N(C)[C@H]2C/C=C\CCN(C2=O)[C@@H](Cc2ccc(C(F)(F)F)cc2)C(=O)N(C)CC(=O)N[C@@H](CCc2cc(F)c(C(F)(F)F)c(F)c2)C(=O)N(C)[C@@H](C)C(=O)NC2(CC(C)(C)C2)C(=O)N(C)[C@@H](C2CCCC2)C(=O)N(C)[C@H](C(=O)N(C)C)CC(=O)N1C [PP1934] | A (a compound having 10 or more and less than 20 is denoted as A) | A (a compound having 10 or more and less than 20 is denoted as A) | 68.5 |
